The values that follow come from PMC7312375, “A Novel, Pan-PDE Inhibitor Exerts Anti-Fibrotic Effects in Human Lung Fibroblasts via Inhibition of TGF-β Signaling and Activation of cAMP/PKA Signaling” (International Journal of Molecular Sciences, 2020).

The subject of test [1] is TGF-β1-induced MRC-5 cells. Put plainly: Immunofluorescence count of α-SMA positive myofibroblasts. The test is classed as cell-based, human. Conditions: 10 µM, 48 h TGF-β1 5 ng/mL. The procedure: (§1) For immunocytochemical labeling, MRC-5 cells were seeded on glass coverslips. Study compounds (10 µM) were added 1 h before TGF-β1 treatment, and analysis was performed after 1 h (p-Smad-2 and p-CREB detection) or 48 h (α-SMA detection) of incubation. Cells were fixed in methanol or 4% formaldehyde solution, permeabilized in 0.2% or 0.1% Triton X-100 solution (for p-Smad-2 and p-CREB or α-SMA, respectively). After incubation in blocking solution the following primary antibodies: rabbit polyclonal, anti-phospho-Smad-2 (Ser465, Ser467) antibody (#44-244G, Thermo Fisher Scientific, Waltham, MA, USA); rabbit polyclonal, anti-phospho-CREB1 (Ser133) antibody (#orb213775, Biorbyt, Cambridge, United Kingdom); mouse monoclonal, anti-α-SMA antibody (#MA5-11547, Thermo Fisher Scientific, Waltham, MA, USA) and secondary antibodies: goat anti-rabbit Alexa Fluor 546 conjugated antibody and goat anti-mouse Alexa Fluor 488 conjugated antibody (#A-11010 and #A-11001, respectively, Invitrogen, Carlsbad, CA, USA) were used. Nuclei were counterstained with Hoechst 33342 dye (Thermo Fisher Scientific, Waltham, MA, USA). Slides were mounted in ProLong™ Glass Antifade Mountant (Invitrogen, Carlsbad, CA, USA) and analyzed using Leica DMiL LED Fluo microscope (for α-SMA and p-CREB visualization, 40× objective) or Leica DMi8 with Thunder Imaging System (for p-Smad-2 visualization, 40× objective), all equipped with LAS-X Software (Leica Microsystems GmbH, Wetzlar, Germany). Experiments were run four times using five randomly selected fields of view, at the same fluorescent time exposure and in a blind-folded manner.

Test [2] relates to TGF-β1-induced MRC-5 cells. Put plainly: Western blot of p-Smad-2. Type of test: cell-based, human. Conditions: 10 µM, 1 h pre-incubation, TGF-β1 5 ng/mL 1 h. As for the experimental part:
Western Blot analysis was performed according to a standard protocol. Briefly, MRC-5 cells were pre-incubated with the study compounds (10 µM) for 1 h, […] (RIPA Lysis and Extraction Buffer, Thermo Fisher Scientific, Waltham, MA, USA) and supplemented with protease inhibitor cocktail and phosphatase inhibitor cocktail (both from Sigma Aldrich, St. Louis, MO, USA). Equal amounts of protein (30 µg) were separated using 10% SDS-polyacrylamide gels and transferred onto polyvinylidene difluoride (PVDF) membranes (Thermo Fisher Scientific, Waltham, MA, USA). Then membranes were washed with Tris Buffered Saline with Tween 20 (TBST) buffer (150 mM NaCl, 50 mM Tris, 0.05% Tween 20), blocked with 5% skim milk in TBST and incubated overnight with the appropriate primary antibody: rabbit, polyclonal anti-SMAD2 antibody, dilution 1:250, #51-1300 and rabbit, polyclonal anti-phospho-SMAD2 (Ser465, Ser467) antibody, dilution 1:500, #44-244G (both from Thermo Fisher Scientific, Waltham, MA, USA); rabbit, polyclonal anti-CREB1 antibody, dilution 1:500, #orb213777 and rabbit, polyclonal anti-phospho-CREB1 (Ser133) antibody, dilution 1:500, #orb213775 (both from Biorbyt LLC, San Francisco, CA, USA); mouse monoclonal anti-GAPDH antibody, dilution 1:5000, #G8795 (Sigma Aldrich, St. Louis, MO, USA). The next day, after gentle rising, membranes were exposed to secondary, rabbit anti-mouse IgG (whole molecule) peroxidase antibody (#A9044, dilution 1:3000, Sigma Aldrich, St. Louis, MO, USA) and goat anti-rabbit IgG (H+L) peroxidase-conjugated antibody (#32460, dilution 1:3000, Thermo Fisher Scientific, Waltham, MA, USA). Blots were visualized using a chemiluminescence method (Clarity Max™ Western ECL Substrate—Peroxide Solution, BioRad, Hercules, CA, USA) with a C-DiGit® Blot Scanner (LI-COR Biosciences, Lincoln, NE, USA). ROD was measured according to the NIH guidelines with Fiji ImageJ Software. The experiments were run four times.
(In general: A western blot detects proteins with antibodies after separation by electrophoresis.)

Test [3] concerns TGF-β1-induced MRC-5 cells. Kind of test: Protein kinase A activity. The test is classed as cell-based, human. Conditions: 10 µM 30 min, then TGF-β1 30 min. The procedure:
Protein Kinase A (PKA) activity in MRC-5 cells was determined using a PKA Colorimetric Activity Kit (Invitrogen, Carlsbad, CA, USA) according to the manufacturer’s protocol. MRC-5 cells were seeded in standard culture medium, and after 48 h they were serum-starved for 2 h in HBSS, followed by the addition of study compounds (10 µM) and incubation for 30 min. Finally, TGF-β1 was administered, and the samples were incubated for an additional 30 min. Whole cell lysates were used in the assay. The amount of PKA was normalized to the total protein content in each sample. The experiments were run two times in duplicates.

In another test the target is T1, TRPA1 (Homo sapiens, UniProt O75762).
T1 construct: host or cells: HEK293
T1 sequence (O75762 whole entry, species assumed): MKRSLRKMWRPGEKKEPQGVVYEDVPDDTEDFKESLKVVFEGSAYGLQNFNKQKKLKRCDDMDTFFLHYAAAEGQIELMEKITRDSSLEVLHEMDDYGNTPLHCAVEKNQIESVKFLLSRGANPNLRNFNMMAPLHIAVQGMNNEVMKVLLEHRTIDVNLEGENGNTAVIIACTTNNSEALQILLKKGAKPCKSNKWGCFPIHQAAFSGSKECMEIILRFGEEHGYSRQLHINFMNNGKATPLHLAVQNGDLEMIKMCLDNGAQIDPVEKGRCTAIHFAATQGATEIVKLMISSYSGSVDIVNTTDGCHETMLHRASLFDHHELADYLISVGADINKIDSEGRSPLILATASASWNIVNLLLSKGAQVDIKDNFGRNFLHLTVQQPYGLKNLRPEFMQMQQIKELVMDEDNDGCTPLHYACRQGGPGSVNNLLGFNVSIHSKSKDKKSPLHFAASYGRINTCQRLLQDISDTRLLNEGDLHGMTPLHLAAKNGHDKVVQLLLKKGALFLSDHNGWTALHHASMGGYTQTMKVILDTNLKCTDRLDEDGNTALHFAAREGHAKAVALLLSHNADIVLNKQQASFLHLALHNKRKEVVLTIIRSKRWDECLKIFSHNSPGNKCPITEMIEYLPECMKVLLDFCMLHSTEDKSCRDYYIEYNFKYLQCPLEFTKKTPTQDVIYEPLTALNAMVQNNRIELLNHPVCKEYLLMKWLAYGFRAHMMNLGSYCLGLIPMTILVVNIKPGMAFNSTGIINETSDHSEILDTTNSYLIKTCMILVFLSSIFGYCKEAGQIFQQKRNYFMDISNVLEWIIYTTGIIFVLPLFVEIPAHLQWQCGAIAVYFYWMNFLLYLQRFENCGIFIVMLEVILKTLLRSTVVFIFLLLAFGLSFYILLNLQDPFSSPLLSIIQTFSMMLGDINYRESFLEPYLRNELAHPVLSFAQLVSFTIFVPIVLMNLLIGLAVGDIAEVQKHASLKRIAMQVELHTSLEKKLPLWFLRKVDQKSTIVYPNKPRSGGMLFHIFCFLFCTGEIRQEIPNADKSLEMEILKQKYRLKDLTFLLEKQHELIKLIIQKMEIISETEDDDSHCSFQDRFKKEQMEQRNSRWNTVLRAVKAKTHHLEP
Put plainly: TRPA1 antagonist FLIPR assay (functional, HEK293 cell-based). As for the experimental part: The TRPA1 agonist and antagonist fluorescent imaging plate reader (FLIPR) Assay (functional, HEK293 cell-based) was performed at Eurofins Panlabs, Inc. (St. Charles, MO, USA). The compounds were prepared in assay buffer to the final dilutions 10 and 50 µM. In each experiment, the respective reference compounds were tested: allyl isothiocyanate (the agonist assay) and ruthenium red (the antagonist assay). The […] assays were conducted on a FLIPR^TETRA instrument where the test compounds, vehicle controls, and reference agonists or antagonists were added to the assay plate after a fluorescence baseline was established. The agonist or antagonist incubation during the assay was for a total of 180 s and was used to assess each compound’s ability to activate or inactivate TRPA1. All plates were subjected to appropriate baseline corrections. Once baseline corrections were processed, maximum fluorescence values were exported, and data was manipulated to calculate percentage activation or percentage inhibition. Results showing activity greater than 25% were considered to represent significant effects of test compounds. Experiments were run three times, […].

For test [4], the system named is TGF-β1-induced MRC-5 cells. Kind of test: Immunofluorescence, nuclear localization of p-CREB. The conditions noted are these: 10 µM. The test is classed as cell-based, human. The procedure: as §1
Test [5] concerns MRC-5 cells. Put plainly: FBS-induced MRC-5 proliferation, alamarBlue assay. Conditions: for MRC-5 proliferation [% of control]: Table S1 (Figure 2B), 48 h with FBS. The test is classed as cell-based, human. The procedure:
The normal human lung fibroblast cell line—MRC-5 (ATCC® CCL-171™, Manassas, VA, USA)—was used in the study. Cells were cultured in Eagle’s Minimum Essential Medium (EMEM, ATCC® 30-2003™, Manassas, VA, USA) supplemented with 10% (v/v) fetal bovine serum (FBS; Gibco, Thermo Fisher Scientific, Waltham, MA, USA) and antibiotics mixture (penicillin, streptomycin, amphotericin B; Gibco, Thermo Fisher Scientific, Waltham, MA, USA) (standard culture medium) in standard culture conditions (5% CO2, 37 °C, 95% humidity). Unless otherwise specified, for the experiments, cells were seeded at a final density (5 × 10^3/cm^2) in standard culture medium for 24 h and then cultured in EMEM at reduced serum content (0.5%; v/v) for additional 24 h. TGF-β1 (BD Biosciences, San Jose, CA, USA) was administered at 5 ng/mL concentration in all experiments.
MRC-5 cell viability was evaluated using CytoTox-ONE™ Homogeneous Membrane Integrity Assay (Promega Corporation, Madison, WI, USA) according to the manufacturer’s protocol. The average fluorescence intensity with an excitation wavelength of 560 nm and an emission wavelength of 590 nm was measured using a microplate reader (SpectraMax® iD3, Molecular Devices, San Jose, CA, USA). Experiments were run three times in duplicates. MRC-5 proliferation was determined using the alamarBlue® assay. Cells were seeded for 24 h in standard culture medium, then serum-starved for an additional three days. Evaluated compounds (1-50 µM) were added 1 h prior FBS (10%, v/v) for an additional 48 h. After incubation, the alamarBlue® reagent (Invitrogen, Life Technologies, Carlsbad, CA, USA), dissolved in Hank’s Balanced Salt Solution (10% v/v; Gibco, Thermo Fisher Scientific, Waltham, MA, USA), was added for 30 min. After the observed color change, the supernatant was transferred to 96-well plates, and the absorbance was measured at 570 and 600 nm. The percent difference in reduction between treated and control cells was calculated according to the manufacturer’s protocol. The experiments were run three times in duplicates.
A general note: Resazurin is reduced to fluorescent resorufin, in cell work by metabolically active cells.

Test [6] has as its system MRC-5 cells. Put plainly: TGF-β1-induced collagen gel contraction assay. The test is classed as cell-based, human. The conditions noted are these: 10 µM, 1 h pre-incubation, 6 h TGF-β1; compared to TGF-β1 alone. The procedure: A collagen cell contraction assay was performed according to manufactures’ instructions (Cell Biolabs, INC., San Diego, CA, USA). Briefly, MRC-5 was harvested and mixed with a collagen solution. After polymerization, collagen gel lattices were cultured for two days, during which mechanical tension develops. Before releasing the stressed matrix, MRC-5 cells were pre-treated with study compounds (10 µM) for 1 h. Then collagen gels were gently released from the sides of the culture dishes and contraction in the presence of study compounds, and TGF-β1 was initiated. The collagen gel size was monitored at various time points and quantified with the Fiji ImageJ Software (National Institutes of Health, Bethesda, MD, USA, version 1.52q). The experiments were run three times.

Test [7] deals with TGF-β1-induced MRC-5 cells. Put plainly: Western blot of p-CREB. Type of test: cell-based, human. The conditions noted are these: 10 µM. The procedure:
Western Blot analysis was performed according to a standard protocol. Briefly, MRC-5 cells were pre-incubated with the study compounds (10 µM) for 1 h, followed by 48 h incubation with TGF-β1 and then lysed in RIPA buffer (RIPA Lysis and Extraction Buffer, Thermo Fisher Scientific, Waltham, MA, USA) and supplemented with protease inhibitor cocktail and phosphatase inhibitor cocktail (both from Sigma Aldrich, St. Louis, MO, USA). Equal amounts of protein (30 µg) were separated using 10% SDS-polyacrylamide gels and transferred onto polyvinylidene difluoride (PVDF) membranes (Thermo Fisher Scientific, Waltham, MA, USA). […] ROD was measured according to the NIH guidelines with Fiji ImageJ Software. […]

The test system of test [8] is MRC-5 cells. Put plainly: cAMP ELISA. The conditions noted are these: 10 µM, 30 min. The test is classed as cell-based, human. The procedure: MRC-5 cells were seeded in standard culture medium for 24 h and then serum-starved for 2 h in HBSS. The study compounds (10 µM) were added to the MRC-5 cultures and after 30 min of incubation, the intracellular cAMP level in cell lysates was measured using a colorimetric cAMP ELISA Kit according to the manufacturer’s protocol (Cell Biolabs, INC., San Diego, CA, USA). Obtained results were normalized to total protein content in each sample. The experiments were run two times in duplicates.
Background: An ELISA detects its analyte on a solid surface through an enzyme-linked reagent.

Consider `CC(C)c1ccc(NC(=O)Cn2cnc3c2c(=O)n(C)c(=O)n3C)cc1` [HC-030031, 2-(1,3-dimethyl-2,6-dioxo-1,2,3,6-tetrahydro-7H-purin-7-yl)-N-(4-isopropylphenyl)acetamide, reference compound], for which the “number of myofibroblasts (MRC-5 with α-SMA-positive stress fibers); fibroblast to myofibroblast transition” value in [1] was “did not show any significant effect”. The “TGF-β1-induced Smad-2 phosphorylation (immunoblot)” value in [2] was “no differences”. For the same compound, in test [3], the “Protein kinase A activity in TGF-β1-induced fibroblasts” value was “no significant change”. The “TRPA1 Inhibition (% of control)” value at TRPA1 (10 µM) was 91.8 % of control; at TRPA1 (50 µM), 98.8 % of control. For the same compound, the “elevation of fraction of MRC-5 cells with nuclear p-CREB localization” value in [4] is given as “only a slight increase”. For the same compound, the inhibition at 50 µM with MRC-5 cells [5] (Homo sapiens, MRC5, 50 µM, read-out: inhibition of FBS-induced MRC-5 proliferation rate) turned out to be 15%. The “MRC-5 proliferation [% of control]” value with MRC-5 cells [5] (1 µM) was 98 % of control; in the test with MRC-5 cells [5] (5 µM), 96 % of control; with MRC-5 cells [5] (10 µM) it was 95 % of control; in the test with MRC-5 cells [5] (15 µM) it was 90 % of control; in the test on MRC-5 cells [5] (20 µM), 90 % of control; with MRC-5 cells [5] (50 µM), 85 % of control.

Take `C=C[C@@]1(C)CC(=O)[C@]2(O)[C@@]3(C)[C@@H](O)CCC(C)(C)[C@@H]3[C@H](O)[C@H](OC(C)=O)[C@@]2(C)O1` [forskolin, reference compound]: in the test with MRC-5 cells [6], the “size of collagen gel lattices (TGF-β1-induced contraction)” value is “showed similar properties as 145 or IBMX”. Besides, in test [7], the “CREB phosphorylation (immunoblot)” value is listed as “increased CREB phosphorylation”. The “Protein kinase A activity in TGF-β1-induced fibroblasts” value in test [3] is “the highest”. Also, in the test with MRC-5 cells [8], the “increase in cAMP level compared to control” value is 5.7 fold. Moreover, the “elevation of fraction of MRC-5 cells with nuclear p-CREB localization” value in test [4] is on record as 76%.
